Patent publication US4132737A, “Trifluoromethyl substituted 1-aminoindanes” (Eli Lilly and Company, priority 1978, dated 1979)
Structures can show the parent of a compound that is named as a salt.

How the values were obtained:
catechol amine uptake = settings: literature statement, no figures; cited from earlier work
[1] = target: T1, norephineprine N-methyl transferase (Oryctolagus cuniculus, UniProt G1TT82); assay: in vitro inhibition of N-methyl transferase (NMT) from rabbit adrenals; assay type: biochemical; settings: from concentration giving 50 percent inhibition, decreasing concentrations from 1 × 10^-4 M, read-out: pI50 (converted)
T1 construct: employing NMT from rabbit adrenals; from tissue; host or cells: rabbit adrenals
T1 sequence (G1TT82 1-286): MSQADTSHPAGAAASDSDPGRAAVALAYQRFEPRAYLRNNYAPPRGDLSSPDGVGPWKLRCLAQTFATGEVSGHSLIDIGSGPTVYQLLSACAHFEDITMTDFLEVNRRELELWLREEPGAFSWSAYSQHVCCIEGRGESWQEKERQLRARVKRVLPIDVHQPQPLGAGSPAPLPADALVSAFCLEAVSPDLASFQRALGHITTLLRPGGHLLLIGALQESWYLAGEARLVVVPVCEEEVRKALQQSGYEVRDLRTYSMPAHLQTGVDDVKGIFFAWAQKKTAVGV
Text: The compounds of this invention, either in the form of the free base, or as a pharmaceutically-acceptable acid addition salt thereof, are enzyme inhibitors. In particular, as previously stated, they are inhibitors of norephineprine N-methyl transferase [PNMT or phenethanolamine N-methyl transferase - - see Axelrod, J. Bio. Chem., 237, 1657 (1962)]. Compounds which inhibit the conversion of norephineprine to ephineprine are capable of lowering a high ephineprine-norephineprine ratio in mammals, a physiological condition frequently associated with essential hypertension. The compounds of this invention are thus capable of ameliorating the ephineprine-norephineprine imbalance in essential hypertension, an important aspect of the treatment of this disease state. The effectiveness of the compounds as N-methyl transferase inhibitors has been measured in vitro employing NMT from rabbit adrenals. By using a series of decreasing concentration of the inhibiting amine, usually starting with 1 × 10^-4 M continuing with 3 × 10^-5 M, 1 × 10^-5 M, etc., it was possible to determine a concentration at which the 50 percent inhibition of NMT was achieved. The negative reciprocal logarhithm (pI50) of this number was also calculated as a useful index. Table 1, which follows, summarizes the information thus obtained; i.e., the determination of enzyme inhibition activity for the compounds of this invention. […]

## NC1Cc2ccccc2C1 [2-aminoindane]
Catechol amine uptake
  inhibitor of catechol amine uptake, compared with 1-aminoindane: better inhibitor of catechol amine uptake than 1-aminoindane

## NC1CCc2c1cccc2C(F)(F)F (centres unmarked) [4-trifluoromethyl-1-aminoindane hydrochloride]
[1]
  IC50: 0.234 µM
pKa determination
  pKa: 8.58

## NC1CCc2ccc(C(F)(F)F)cc21 (centres unmarked) [6-Trifluoromethyl-1-aminoindane hydrochloride]
[1]
  IC50: 64.6 µM
pKa determination
  pKa: 8.52
